Experiment [1] deals with SW620/AD300. In words: Reversal of paclitaxel resistance in human SW620/AD300 cells assessed as reversal fold by measuring ratio of paclitaxel IC50 to paclitaxel IC50 in presence of test compound incubated for 72 hrs by MTT assay. In kind it is functional. (Formazan colour is commonly taken as a measure of viable cells.)
For experiment [2], the system named is SW620/AD300. In words: Cytotoxicity against multidrug resistant human SW620/AD300 cells assessed as survival rate at 4 uM measured after 72 hrs by MTT assay relative to control. In kind it is functional. The following applies: read-out: Survival.
In experiment [3] the test system is SW-620. In words: Reversal of paclitaxel resistance in human SW620 cells assessed as reversal fold by measuring ratio of paclitaxel IC50 to paclitaxel IC50 in presence of test compound at 4 uM incubated for 72 hrs by MTT assay. The experiment is classed as functional.
Experiment [4] concerns SW620/AD300. Put plainly: Cytotoxicity against multidrug resistant human SW620/AD300 cells measured after 72 hrs by MTT assay. The experiment is classed as functional, cell-based. Particulars: SW620/AD300, 72 h.
The test system of experiment [5] is HEK293. Put plainly: Cytotoxicity against HEK293 cells harbouring ABCB1 measured after 72 hrs by MTT assay. The experiment is classed as functional, cell-based. Particulars: Homo sapiens, HEK293, 72 h.
In experiment [6] the test system is KB-C2. Put plainly: Cytotoxicity against human KB-C2 cells measured after 72 hrs by MTT assay. In kind it is functional, cell-based. The following applies: KB-C2, 72 h.
The subject of experiment [7] is KB 3-1. In words: Cytotoxicity against human KB 3-1 cells measured after 72 hrs by MTT assay. The experiment is classed as functional, cell-based. Particulars: KB 3-1, 72 h.
The test system of experiment [8] is SW-620. In words: Cytotoxicity against human SW620 cells measured after 72 hrs by MTT assay. The experiment is classed as functional, cell-based. Particulars: SW-620, 72 h.
Experiment [9] relates to HEK293. Put plainly: Cytotoxicity against HEK293 cells transfected with pcDNA3.1 measured after 72 hrs by MTT assay. In kind it is functional, cell-based. Particulars: Homo sapiens, HEK293, 72 h.

Structures are written as SMILES.

As to `Cc1cc(=O)n2nc(SCc3ccc(Br)cc3)nc2[nH]1`, in [1], the “Ratio IC50” value was found to be 10.29. In addition, in experiment [2], the viability at 4 µM was 94.9%.
As to `O=c1c2c([nH]c3ncnn13)CCCC2`, the “Ratio IC50” value in experiment [1] stood at 6.45. For the same compound, the viability at 4 µM in experiment [2] was found to be 94.7%.
For the compound `Cc1[nH]c2ncnn2c(=O)c1C`, the “Ratio IC50” value in experiment [1] worked out at 4.36. Moreover, in experiment [2], the viability at 4 µM turned out to be 93.8%.
Take `Cc1cc(=O)n2nc(SCc3ccc([N+](=O)[O-])cc3)nc2[nH]1`: the “Ratio IC50” value in [1] was 7.08. Also, in experiment [2], the viability at 4 µM is 93.2%.
As for `Cc1cc(=O)n2nccc2[nH]1`, the “Ratio IC50” value in experiment [1] is 2.81. The viability at 4 µM in experiment [2] is 93.9%.
The corresponding values for `CCOC(=O)CCc1c(C)[nH]c2ncnn2c1=O` are 1.03 and 94.2%.
The corresponding values for `O=c1c2c([nH]c3ncnn13)CCC2` are 13.94 and 96.2%.
For `COc1ccc(CSc2nc3[nH]c(C)cc(=O)n3n2)cc1`, the “Ratio IC50” value in experiment [1] is 33.49. In experiment [2], the viability at 4 µM turned out to be 93.6%.
Consider `Cc1cc(=O)n2nc(SCc3ccc(Cl)c(F)c3)nc2[nH]1`, for which, in [1], the “Ratio IC50” value came out at 18. In addition, in experiment [2], the viability at 4 µM was found to be 97.6%.
For the compound `O=c1c2c([nH]c3nc(SCc4csc5ccc(Cl)cc45)nn13)CCC2`, the “Ratio IC50” value in [1] worked out at 56.1. In addition, in experiment [2], the viability at 4 µM is 98.8%.
In the case of `O=c1c2c([nH]c3ncnn13)CSC2`, in experiment [1], the “Ratio IC50” value is listed as 8. Further, in [2], the viability at 4 µM was 97.7%.
The corresponding values for `Cc1cc(=O)n2nc(SCc3nc4ccccc4[nH]3)nc2[nH]1` are 44.54 and 96.8%.
The corresponding values for `Cc1cc(=O)n2nc(SCc3cccc4ccccc34)nc2[nH]1` are 24.27 and 97.8%.
For `CC(C)c1cc(=O)n2ncnc2[nH]1`, in that order: 1.39 and 95.7%.
`O=c1c2c([nH]c3nc(SCc4ccccc4)nn13)CCC2`: the “Ratio IC50” value in [1] was found to be 25.41. Also, the viability at 4 µM in [2] is 94.7%.
Turning to `Cc1cc(=O)n2nc(SCc3ccc(C(F)(F)F)cc3)nc2[nH]1`, in experiment [1], the “Ratio IC50” value is 4.08. In addition, in experiment [2], the viability at 4 µM was 97.6%.
The corresponding values for `COC(=O)c1nc2[nH]c3c(c(=O)n2n1)CCC3` are 20.57 and 94.7%.
Turning to `O=c1c2c([nH]c3ncnn13)COC2`, the “Ratio IC50” value in experiment [1] is 6.75. The viability at 4 µM in [2] is 98%.
For `Cc1cc(=O)n2ncnc2[nH]1`, in that order: 5.4 and 97.6%.
The corresponding values for `O=c1cc(C2CC2)[nH]c2ncnn12` are 1.36 and 92.5%.
Consider `Cc1cc(=O)n2c(C#N)c(C#N)nc2[nH]1`, for which the “Ratio IC50” value in experiment [1] turned out to be 1.38. For the same compound, the viability at 4 µM in [2] came to 97.5%.
For `Cc1cc(=O)n2nc(SCc3csc4ccc(Cl)cc34)nc2[nH]1`, in that order: 18 and 94.6%.
The corresponding values for `C#CCSc1nc2[nH]c(C)cc(=O)n2n1` are 4.6 and 97.2%.
As to `O=c1c2c([nH]c3ncnn13)CCCCC2`, the “Ratio IC50” value in [1] came out at 3.57. The viability at 4 µM in experiment [2] is 95.3%.
As to `Cc1cc(=O)n2c(nc3ccccc32)[nH]1`, the “Ratio IC50” value in [1] is given as 1.09. Further, the viability at 4 µM in experiment [2] stood at 96.2%.
For `Cc1cc(=O)n2nc(SCc3cc(=O)oc4c3ccc3ccccc34)nc2[nH]1`, in that order: 57.6 and 97.1%.
In the case of `Cc1cc(=O)n2nc(SCc3ccc(F)cc3)nc2[nH]1`, the “Ratio IC50” value in experiment [1] is recorded as 14.9. For the same compound, in [2], the viability at 4 µM was found to be 99.4%.
The corresponding values for `O=c1c2c([nH]c3nc(SCc4nc5ccccc5[nH]4)nn13)CCC2` are 69.68 and 94.7%.
For `C#CCSc1nc2[nH]c3c(c(=O)n2n1)CCC3`, in [1], the “Ratio IC50” value amounted to 24. Moreover, the viability at 4 µM in experiment [2] amounted to 96.9%.
As to `Cc1cc(=O)n2nc(SCc3nc4ccccc4s3)nc2[nH]1`, the “Ratio IC50” value in experiment [1] is 60.85. Besides, the viability at 4 µM in [2] was 97.2%.
Turning to `O=c1cc(-c2ccccc2)[nH]c2ncnn12`, the “Ratio IC50” value in [1] turned out to be 1.03. Moreover, the viability at 4 µM in experiment [2] was determined as 99%.
For `Cc1cc(=O)n2nc(SCc3ccc(Cl)cc3)nc2[nH]1`, the “Ratio IC50” value in [1] amounted to 13.94. Also, in experiment [2], the viability at 4 µM came out at 94.5%.
For `Cc1cc(=O)n2nc(SCc3ccccc3)nc2[nH]1`, in that order: 10.8 and 95%.
For `CCCCCc1c(C)[nH]c2ncnn2c1=O`, in that order: 1 and 98.6%.
In the case of `COC(=O)c1nc2[nH]c(C)cc(=O)n2n1`, the “Ratio IC50” value in experiment [1] is recorded as 4.5. In [2], the viability at 4 µM amounted to 97.9%.
For the compound `CC(=O)O[C@H]1C(=O)[C@@]2(C)[C@H]([C@H](OC(=O)c3ccccc3)[C@]3(O)C[C@H](OC(=O)[C@H](O)[C@@H](NC(=O)c4ccccc4)c4ccccc4)C(C)=C1C3(C)C)[C@]1(OC(C)=O)CO[C@@H]1C[C@@H]2O` [PACLITAXEL], the “Ratio IC50” value in experiment [3] is given as 1.03. For the same compound, the IC50 (usually the concentration that inhibits the measured activity by half) in [4] stood at 4320 nM; in experiment [5], 106 nM; in [6] it was 2090 nM; in [7], 4.32 nM; in experiment [8], 6.55 nM; in experiment [9] it was 2.08 nM.
As for `Cc1cc(=O)n2nc(SCC3CCCCC3)nc2[nH]1`, the “Ratio IC50” value in experiment [1] was determined as 6. Further, the viability at 4 µM in experiment [2] came out at 92.6%.
Take `O=c1cc(C(F)F)[nH]c2ncnn12`: the “Ratio IC50” value in experiment [1] was found to be 1.06. Further, in experiment [2], the viability at 4 µM amounted to 92.4%.
For the compound `CCc1cc(=O)n2ncnc2[nH]1`, the “Ratio IC50” value in [1] came to 1.83. For the same compound, in experiment [2], the viability at 4 µM was found to be 95.9%.

The values above are taken from ChEMBL document CHEMBL6092192 (J Med Chem, 2024).
